The values that follow come from ChEMBL document CHEMBL4118186 (Bioorg Med Chem Lett, 2018).

Structures are written as SMILES.

One data set concerns the target T1, Proteasome Macropain subunit MB1 (Homo sapiens, UniProt P28074).
T1 sequence (P28074 whole entry): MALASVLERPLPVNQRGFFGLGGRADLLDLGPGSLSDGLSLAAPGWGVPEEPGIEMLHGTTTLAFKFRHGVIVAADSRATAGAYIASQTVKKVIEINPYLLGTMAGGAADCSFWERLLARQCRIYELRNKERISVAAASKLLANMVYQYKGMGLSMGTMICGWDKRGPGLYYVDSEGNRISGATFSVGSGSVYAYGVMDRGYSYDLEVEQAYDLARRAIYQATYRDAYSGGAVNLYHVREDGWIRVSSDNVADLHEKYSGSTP
The experiment in a line: Inhibition of chymotrypsin-like activity of human 20S proteasome using Suc-Leu-Leu-Val-Tyr-AMC as substrate after 1 hr by fluorescence analysis.
For the molecule `CC(C)C[C@H](NC(=O)[C@H](Cc1ccccc1)OCc1cccc2ccccc12)B(O)O`, the half-maximal inhibitory concentration (IC50) is 0.109 µM.
Still for that read-out and setting: then `CC(C)C[C@H](NC(=O)[C@H](Cc1ccccc1)OCc1ccccc1)B(O)O`, with 0.036 µM.
On the same count and under the same terms, then `CC(C)C[C@H](NC(=O)[C@H](Cc1ccccc1)NCc1cnccn1)B(O)O`, with 0.065 µM; and `CC(C)C[C@H](NC(=O)[C@H](Cc1ccccc1)NCc1ccccc1)B(O)O`, with 0.0097 µM; and `CC(C)C[C@H](NC(=O)[C@H](Cc1ccccc1)Oc1cccc2ccccc12)B(O)O`, with 0.275 µM.
As for `CC(C)C[C@H](NC(=O)[C@H](Cc1ccccc1)OCc1cnccn1)B(O)O`, the midpoint of inhibition, the IC50, lay at 0.053 µM.
`CC(C)C[C@H](NC(=O)[C@H](Cc1ccccc1)Oc1ccccc1)B(O)O`: the midpoint of inhibition, the IC50, lay at 0.126 µM.
Still for that read-out and setting: then `CC(C)C[C@H](NC(=O)[C@H](Cc1ccccc1)NCc1cccc2ccccc12)B(O)O`, with 0.092 µM; and `CC(C)C[C@H](NC(=O)[C@H](Cc1ccccc1)Nc1ccccc1)B(O)O`, with 0.335 µM.
Same read-out and setting: then `CC(C)C[C@H](NC(=O)[C@H](Cc1ccccc1)Oc1cnccn1)B(O)O`, with 0.155 µM; and `CC(C)C[C@H](NC(=O)[C@H](Cc1ccccc1)Nc1cnccn1)B(O)O`, with 0.192 µM; and `CC(C)C[C@H](NC(=O)[C@H](Cc1ccccc1)Nc1cccc2ccccc12)B(O)O`, with 0.166 µM.

Test system in a further data set: not listed separately
The data set can be described thus: Metabolic stability in human liver microsomes at 1 uM preincubated for 5 mins followed by NADP+ addition measured up to 40 mins by LC/MS method. Format: ADME, microsome. For orientation: Microsomes from liver hold many membrane-bound enzymes, among them those of drug oxidation.
Consider `CC(C)C[C@H](NC(=O)[C@H](Cc1ccccc1)NCc1ccccc1)B(O)O`, for which the Stability entry was “Stable”.

Test system in the next data set: not listed separately
The data set can be described thus: Metabolic stability in BALB/c mouse liver microsomes at 1 uM preincubated for 5 mins followed by NADP+ addition measured up to 40 mins by LC/MS method. Format: ADME, microsome.
`CC(C)C[C@H](NC(=O)[C@H](Cc1ccccc1)NCc1ccccc1)B(O)O`: the Stability result is “Stable”.

A word on the IC50: it is the concentration that gives 50% inhibition. A higher IC50 goes with weaker potency.
